This data set in a line: Solubility of tenofovir in the aqueous neutralization solution. It is filed as physicochemical. The method, then:
The present invention also relates to a method of adding a defined proportion of calcium hydride to magnesium butoxide that is a catalyst commonly used in the synthesis of DEPMPA from HPA to shorten the reaction time from 18 hours to 6 hours or less and cause the production of toluene calcium sulfonate to reduce highly deliquescent substances, and using an ion-exchange resin (Dowex 50W, sulfonic acid cation exchange resin) after neutralization with a counter-alkali solution in the dealcoholizing hydrolysis of the ester compound into tenofovir, thereby to reach a precise isoelectric point (pH 3.2) and further increase the synthesis yield of tenofovir. Generally, when the pH value is 2.5 to 3.5 in the neutralization, tenofovir (H2O, one-molecule crystal water) is dissolved in the aqueous solution at about 7 percent. When the neutralization is perfectly performed with the ion-exchange resin, the solubility of tenofovir can be reduced to 4 percent or below.

SMILES strings stand for the structures.

Where the note is “neutralization perfectly performed with the ion-exchange resin”, `C[C@H](Cn1cnc2c(N)ncnc21)OCP(=O)(O)O` [tenofovir, (R)-9-[2-(phosphonomethoxy)propyl]adenine] returned a solubility of tenofovir of at most 4%. The “tenofovir dissolved in the aqueous solution” value (pH 2.5 to 3.5 in the neutralization, tenofovir H2O, one-molecule crystal water) is reported as “about 7%”.
